# ChEMBL document CHEMBL1201862, “PubChem BioAssay data set” (2004)
# The source made the active and inactive calls.
# How the values were obtained:
# [1] = target: T1, Rac GTPase-activating protein 1 (Homo sapiens, UniProt Q9H0H5); experiment: blockers of MgcRacGAP-driven Rac1 GTP hydrolysis – biochemical, ADP Hunter fluorescence, primary and confirmatory, confirmation (AID 624330); assay type: functional
# T1 sequence (Q9H0H5 whole entry): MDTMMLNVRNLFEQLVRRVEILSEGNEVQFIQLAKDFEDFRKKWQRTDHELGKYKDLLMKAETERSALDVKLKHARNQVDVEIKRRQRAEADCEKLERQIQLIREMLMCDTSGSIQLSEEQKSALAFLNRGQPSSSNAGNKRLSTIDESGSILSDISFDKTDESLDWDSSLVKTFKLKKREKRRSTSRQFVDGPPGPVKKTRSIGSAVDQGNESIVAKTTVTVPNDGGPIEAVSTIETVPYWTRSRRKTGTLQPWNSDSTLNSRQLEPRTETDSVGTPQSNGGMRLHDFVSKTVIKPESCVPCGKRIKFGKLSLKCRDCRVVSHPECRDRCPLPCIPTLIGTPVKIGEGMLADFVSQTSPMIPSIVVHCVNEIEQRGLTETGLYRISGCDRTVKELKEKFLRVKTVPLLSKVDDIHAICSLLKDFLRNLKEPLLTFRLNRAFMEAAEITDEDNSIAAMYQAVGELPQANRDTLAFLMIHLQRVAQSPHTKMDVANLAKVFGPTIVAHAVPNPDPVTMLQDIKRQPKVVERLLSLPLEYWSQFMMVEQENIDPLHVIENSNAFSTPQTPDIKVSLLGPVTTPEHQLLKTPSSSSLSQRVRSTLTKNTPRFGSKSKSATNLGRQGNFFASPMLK
# [2] = target: T2, Heat shock factor protein 1 (Mus musculus, UniProt P38532); experiment: decrease of HSF1-responsive luciferase luminescence – cell-based, NIH3T3, dose retest, confirmation (AID 2382); assay type: functional;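 also: NIH3T3 fibroblasts with HSF1-driven luciferase reporter stressed by proteasome inhibitor MG132; luminescence from HSF1-driven luciferase expression after 8 hours of MG132 stress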
# T2 sequence (P38532 whole entry): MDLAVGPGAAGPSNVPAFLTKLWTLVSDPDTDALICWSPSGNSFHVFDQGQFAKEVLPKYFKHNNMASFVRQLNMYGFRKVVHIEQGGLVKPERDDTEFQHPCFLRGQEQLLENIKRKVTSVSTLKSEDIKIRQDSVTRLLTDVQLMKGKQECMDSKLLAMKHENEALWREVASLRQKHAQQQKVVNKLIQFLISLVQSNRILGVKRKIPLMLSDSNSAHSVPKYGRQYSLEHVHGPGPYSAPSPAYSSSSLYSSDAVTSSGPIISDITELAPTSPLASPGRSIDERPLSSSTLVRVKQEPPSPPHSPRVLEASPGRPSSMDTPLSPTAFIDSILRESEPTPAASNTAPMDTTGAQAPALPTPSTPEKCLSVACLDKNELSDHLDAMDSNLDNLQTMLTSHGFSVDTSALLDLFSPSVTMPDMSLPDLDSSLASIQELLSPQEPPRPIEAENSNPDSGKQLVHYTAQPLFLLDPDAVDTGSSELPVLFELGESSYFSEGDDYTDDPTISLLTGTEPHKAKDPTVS
# [3] = NIH3T3 cell viability loss – ATP luminescence, mouse fibroblasts, counter-screen, dose response (AID 2010); assay type: functional, cell-based;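 also: cells exposed to compound for about 90 hours before reading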
# [4] = Trypanosoma cruzi growth suppression in host cells – NIH3T3 host cells, beta-gal luminescence, confirmation (AID 2044); assay type: functional, cell-based;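 also: intracellular parasites grown in NIH/3T3 mouse fibroblasts as host cells; luminescent beta-galactosidase reporter signal from transgenic T. cruzi replicating inside host cells; inhibitors lower the luminescence signal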
# Cytochrome P450 2C9 = Cytochrome P450 2C9 (Homo sapiens, UniProt P11712)
# Streptokinase A = target: T3, Streptokinase A (Streptococcus pyogenes serotype M1, UniProt P10520); experiment: viability-normalized secreted streptokinase activity reduction – plasminogen activation absorbance, OD405, dose response (AID 1914); assay type: functional, Streptococcus pyogenes M1 GAS;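 also: secreted streptokinase activity via plasminogen activation per viability signal from cell pellet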
# T3 sequence (P10520 whole entry): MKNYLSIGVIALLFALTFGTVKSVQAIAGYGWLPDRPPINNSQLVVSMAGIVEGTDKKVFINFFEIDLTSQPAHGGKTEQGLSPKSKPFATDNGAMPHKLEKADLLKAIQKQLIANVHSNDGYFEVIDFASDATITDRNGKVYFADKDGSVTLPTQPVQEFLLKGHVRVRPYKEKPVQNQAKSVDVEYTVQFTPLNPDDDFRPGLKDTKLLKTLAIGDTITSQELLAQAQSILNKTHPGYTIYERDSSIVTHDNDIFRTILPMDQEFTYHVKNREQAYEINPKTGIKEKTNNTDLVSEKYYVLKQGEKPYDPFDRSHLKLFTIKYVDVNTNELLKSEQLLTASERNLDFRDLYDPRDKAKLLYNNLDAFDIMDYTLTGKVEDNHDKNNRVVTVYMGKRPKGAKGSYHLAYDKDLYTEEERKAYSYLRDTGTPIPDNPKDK
# Streptococcus = experiment: GAS UMAA2166 growth inhibition – luminescence, BacTiterGlo, counter-screen for streptokinase expression inhibitor project, dose response (AID 1915); assay type: functional, organism-based;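 also: potency for reduction of bacterial viability or growth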
# [5] = system: Streptococcus sp. 'group A'; experiment: Streptococcus pyogenes SK(-)GAS viability under kanamycin – luminescence, BacTiterGlo, confirmation, counter-screen for streptokinase expression inhibitor project, dose response (AID 1900); assay type: functional, organism-based
# Cytochrome P450 2C19 = Cytochrome P450 2C19 (Homo sapiens, UniProt P33261); experiment: Cytochrome panel assay with activity outcomes. Panel member name: p450-cyp2c19 Compounds with AC50 equal or less than 10 uM are considered active; assay type: functional
# Sequence of Cytochrome P450 2C19 (P33261 whole entry): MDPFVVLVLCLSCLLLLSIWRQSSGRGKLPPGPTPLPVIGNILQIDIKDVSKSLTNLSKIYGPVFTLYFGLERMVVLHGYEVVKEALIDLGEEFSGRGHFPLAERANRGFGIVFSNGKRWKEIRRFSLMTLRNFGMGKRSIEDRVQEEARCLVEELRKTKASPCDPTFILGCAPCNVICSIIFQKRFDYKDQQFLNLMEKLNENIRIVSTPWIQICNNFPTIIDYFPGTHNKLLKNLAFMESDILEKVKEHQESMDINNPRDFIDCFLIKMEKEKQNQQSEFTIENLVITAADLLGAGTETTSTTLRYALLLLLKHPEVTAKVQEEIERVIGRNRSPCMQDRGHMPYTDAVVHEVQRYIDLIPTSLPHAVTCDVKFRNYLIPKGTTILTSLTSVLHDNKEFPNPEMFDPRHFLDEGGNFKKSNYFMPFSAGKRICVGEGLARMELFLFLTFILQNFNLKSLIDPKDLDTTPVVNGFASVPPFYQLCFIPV
# Sequence of Cytochrome P450 2C9 (P11712 whole entry): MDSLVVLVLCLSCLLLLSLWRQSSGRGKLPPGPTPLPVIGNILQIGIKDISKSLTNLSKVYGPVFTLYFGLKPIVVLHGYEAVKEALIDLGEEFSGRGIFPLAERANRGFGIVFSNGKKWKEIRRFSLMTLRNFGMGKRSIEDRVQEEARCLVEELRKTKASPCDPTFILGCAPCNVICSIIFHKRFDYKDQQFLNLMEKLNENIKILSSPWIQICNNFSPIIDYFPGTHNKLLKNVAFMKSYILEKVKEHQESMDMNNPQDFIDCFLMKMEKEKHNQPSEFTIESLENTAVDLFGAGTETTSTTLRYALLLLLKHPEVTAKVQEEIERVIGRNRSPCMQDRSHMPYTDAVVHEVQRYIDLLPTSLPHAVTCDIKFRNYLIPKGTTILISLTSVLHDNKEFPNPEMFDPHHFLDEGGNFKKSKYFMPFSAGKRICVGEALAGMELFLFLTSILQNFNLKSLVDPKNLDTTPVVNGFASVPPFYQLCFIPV
structure (smiles),measurement,setting,value
Cc1ccc(CN2CCN(Cc3ccco3)CC2)cc1,IC50,[1],72.7 µM (active)
CCOC(=O)N1CCC(NC(=O)CN2C(=O)CSc3nc(C)cc(C)c32)CC1,EC50,[2],> 195 µM (not active)
CCn1c2ccccc2n2c(=O)c(=O)n(CC(=O)Nc3ccc(C(C)C)cc3)nc12,EC50,[2],> 195 µM (not active)
COc1ccc(C2C(Oc3ccccc3)C(=O)N2c2cc(C)ccc2C)cc1OC (configuration not stated),EC50,[3],> 60 µM (not active)
same,EC50,[4],2.24 µM (active)
O=C(C1CCCN(S(=O)(=O)Cc2ccccc2)C1)N1CCc2ccccc21 (configuration not stated),EC50,[2],> 195 µM (not active)
COC(=O)[C@@]12CCCCN1[C@H](c1ccc(-c3cccc(Cl)c3)c(OC)c1)[C@@H]1C(=O)N(C)C(=O)[C@@H]12,EC50,[3],> 60 µM (not active)
same,EC50,[4],2.48 µM (active)
CCOC(=O)c1ccc(Cl)c(NC(=O)c2cccnc2)c1,EC50,[2],30.8 µM (active)
Fc1ccc(-c2cc(-c3ccccc3)nc(-n3cccn3)n2)cc1,EC50,[2],> 195 µM (not active)
Clc1cc(Cl)c(OCCCCn2cncn2)c(Cl)c1,IC50,[1],156 µM (active)
Cc1ccsc1/C=C(\C(=O)c1ccc(OC(C)C)cc1)c1nc2ccccc2o1,EC50,[3],> 60 µM (inconclusive)
same,EC50,[4],1.69 µM (active)
O=C(c1cccc(F)c1)N1CCC[C@@]2(CCN(c3cccc(-c4ccccc4)c3)C2)C1,AC50,Cytochrome P450 2C9,20 µM (inconclusive)
COc1ccc(NC(=O)C(NC(=O)CNC(C)=O)c2ccc(C)cc2)cc1 (configuration not stated),EC50,[2],> 195 µM (not active)
O=C1c2cccc3c(Nc4ccccc4Cl)c([N+](=O)[O-])cc(c23)C(=O)N1CCO,EC50,[3],> 60 µM (not active)
same,EC50,[4],0.519 µM (active)
Nc1nc(CSc2ncn(-c3ccccc3)n2)cs1,EC50,[2],> 195 µM (not active)
Cc1ccc(/C=C(\NC(=O)c2ccccc2)C(=O)N2CCCC2C(=O)O)cc1 (configuration not stated),EC50,[2],> 195 µM (not active)
COc1ccc(S(=O)(=O)N2CCN=C2SCc2cccc(C)c2)cc1,EC50,Streptokinase A,46.6 µM (inconclusive)
same,EC50,Streptococcus,> 150 µM (not active)
same,EC50,[5],> 150 µM (not active)
CC1CC(C)CN(c2ccc(C(=O)NCc3ccc4c(c3)OCO4)cc2[N+](=O)[O-])C1 (configuration not stated),EC50,[3],> 60 µM (not active)
same,EC50,[4],1.1 µM (active)
NC(=O)CSc1nc2sc(-c3ccccc3)cc2c(=O)n1N,AC50,Cytochrome P450 2C9,3.55 µM (inconclusive)
c1ccn2c(SCc3ccc4c(c3)OCO4)nnc2c1,EC50,[2],> 195 µM (not active)
O=C(Nc1ccccc1)NC1CC2CCC(C1)N2 (configuration not stated),EC50,[2],> 195 µM (not active)
COCCCNCCOc1ccc(C(C)(C)c2ccccc2)cc1,EC50,[3],7.83 µM (active)
same,EC50,[4],0.611 µM (active)
O=C(c1ccc(N2CCCCC2)c([N+](=O)[O-])c1)N(Cc1ccccc1)c1ccccn1,AC50,Cytochrome P450 2C9,7.94 µM (inconclusive)
COc1ccc(Oc2nc(-c3ccccn3)ncc2OC)cc1,EC50,Streptokinase A,> 150 µM (not active)
same,EC50,Streptococcus,> 150 µM (not active)
same,EC50,[5],> 150 µM (not active)
CSc1ccc(CNc2ccc(C)c(C)c2)cc1,AC50,Cytochrome P450 2C9,14.1 µM (inconclusive)
COC(=O)CCNC(=O)c1ccc2nc(Cc3ccc(OC)cc3)oc2c1,EC50,[2],> 195 µM (not active)
COc1cccc(CN2CCC(n3nccc3NC(=O)CCCc3ccccc3)CC2)c1O,EC50,[2],> 195 µM (not active)
C[C@H](CO)NC(=O)[C@H](C)[C@@H]1C[C@@]1(C)[C@@H](NC(=O)OCc1ccccc1)c1ccccc1,AC50,Cytochrome P450 2C9,39.8 µM (inconclusive)
CC(C)C1Cc2c(sc3[nH]c(=S)n(Cc4ccccc4)c(=O)c23)CO1 (configuration not stated),EC50,Streptokinase A,> 150 µM (not active)
same,EC50,Streptococcus,33.4 µM (active)
same,EC50,[5],2.15 µM (active)
CCc1ccc(OCC(=O)NC(N=C(S)Nc2ccccc2C)C(Cl)(Cl)Cl)cc1 (configuration not stated),EC50,[3],> 60 µM (not active)
same,EC50,[4],3.62 µM (active)
CC(OC(=O)c1ccc(NC(=O)CC#N)cc1)C(=O)NC(=O)NC1CCCCC1 (configuration not stated),EC50,Streptokinase A,> 150 µM (not active)
same,EC50,Streptococcus,> 150 µM (not active)
same,EC50,[5],57.5 µM (active)
Cc1ccc(/C=C/C2=NN(Cc3ccc(Cl)c(Cl)c3)C(=O)CC2)cc1,EC50,Streptokinase A,24.3 µM (active)
same,EC50,Streptococcus,50.6 µM (active)
same,EC50,[5],17.2 µM (active)
Cc1ccc(CNC(=O)CSc2nc3c(sc4ccccc43)c(=O)n2CCCN2CCCC2)cc1,EC50,[3],32.5 µM (active)
same,EC50,[4],1.5 µM (active)
Cc1ccccc1CN1CCN(C(=O)CC(C)C)CC1,EC50,[2],> 195 µM (not active)
COc1ccc(C(=O)NCC(=O)OCCCOC(=O)CNC(=O)c2ccc(OC)c(OC)c2)cc1OC,EC50,Streptokinase A,> 150 µM (not active)
same,EC50,Streptococcus,> 150 µM (not active)
same,EC50,[5],> 150 µM (not active)
Nc1ccc(-c2ccc(Nc3cc(S(=O)(=O)O)c(N)c4c3C(=O)c3ccccc3C4=O)cc2)c(S(=O)(=O)O)c1,AC50,Cytochrome P450 2C9,6.31 µM (inconclusive)
CC(C)Cc1ccc(CN2CCCC(NC(=O)c3cnc4ccccn4c3=O)C2)cc1 (configuration not stated),EC50,[3],26.7 µM (active)
same,EC50,[4],0.131 µM (active)
CCn1c(C)[n+](CCCS(=O)(=O)[O-])c2cc(Cl)c(Cl)cc21,AC50,Cytochrome P450 2C19,inconclusive
COc1ccc(NC2CCCN(C(=O)c3cccc(N(C)C)c3)C2)cc1 (configuration not stated),IC50,[1],84.9 µM (active)
O=C(Nc1ccc(N2CCCC2)c(Cl)c1)c1ccc2c(c1)OCCO2,EC50,[3],> 30 µM (not active)
same,EC50,[4],0.555 µM (active)
O=c1c(-c2cc(F)cc(F)c2)nc2cnc(N3CCNCC3)nc2n1Cc1ccc(F)cc1,AC50,Cytochrome P450 2C9,12.6 µM (inconclusive)
Cc1cc(OCC(=O)Nc2sc3c(c2C#N)CC(C)(C)NC3(C)C)c(C(C)C)cc1Cl,EC50,[2],> 195 µM (not active)
NNC(=O)c1nn(-c2ccc(Cl)cc2)cc1O,EC50,[2],27 µM (active)
O=C(Nc1ccc2[nH]c(-c3cccnc3)nc2c1)c1ccccc1F,EC50,[2],> 195 µM (not active)
COc1cc(/C=C/CN2CCC(Oc3ccc(C(=O)N4CCCC4)cc3)CC2)ccc1O,IC50,[1],81.2 µM (active)
CCc1ccc(NC(=O)CNCc2ccc(OC)c(OC)c2)cc1,IC50,[1],131 µM (active)
Cc1ccc(NC(=S)N=Nc2c(O)[nH]c3ccccc23)cc1,EC50,[3],4.31 µM (active)
same,EC50,[4],2.17 µM (active)
same,EC50,Streptokinase A,> 150 µM (not active)
same,EC50,Streptococcus,6.61 µM (active)
same,EC50,[5],1.22 µM (active)
O=C(CP(=O)(c1ccccc1)c1ccccc1)Nn1cnnc1,AC50,Cytochrome P450 2C19,inconclusive
COc1cc(/C=C/C(=O)OCC(=O)c2ccc[nH]2)ccc1O,IC50,[1],32.2 µM (active)
COc1cc(/C=N\NC(=O)c2ccc(Cn3cc(Br)c([N+](=O)[O-])n3)o2)cc(OC)c1O,EC50,Streptococcus,4.9 µM (active)
same,EC50,[5],2.67 µM (active)
Cc1cc(C)c(/N=C2\SCC(=O)N2Cc2ccco2)c(C)c1,EC50,[2],> 195 µM (not active)
CCOC(=O)C1=C(Nc2ccccc2)CC(C)(O)C(C(=O)OCC)C1c1ccccc1 (configuration not stated),EC50,[3],> 60 µM (not active)
same,EC50,[4],> 60 µM (not active)
CCCCNC(=O)C(=O)N/N=C/c1ccc(C(=O)OC)cc1,EC50,[2],> 195 µM (not active)
C[C@H]1COc2c(C3(N)CC3)c(F)cc3c(=O)c(C(=O)O)cn1c23 [PAZUFLOXACIN],EC50,Streptococcus,6.74 µM (active)
same,EC50,[5],7.22 µM (active)
